# Counter-ions that a name gives are not always drawn.
# Columns and labels:
# [1] = test system: ovariectomized female rats; assay: 34-week treatment with ethynyl estradiol, EM-652.HCl, Raloxifene and DHEA, body fat (Example 7); type: in vivo, rat; settings: OVX rats, 34 weeks
# Experimental: The objective of this study was to assess the effect of a combined treatment with EM-652.HCl, and DHEA on body fat and body weight parameters in ovariectomized rats. For this purpose, ovariectomized rats received daily administration of EM-652.HCl (1 mg/kg), and DHEA (80 mg/kg) alone or in combination, for 34 weeks. EM-652.HCl was administered orally while DHEA was applied topically on dorsal skin. One group of animals was orally treated with 17-ethynylestradiol (0.1 mg/kg) and Raloxifene (EM-1105; 1 mg/kg) for comparison.
# Ten to twelve week-old female Sprague-Dawley rats (Crl:CD(SD)Br) weighing approximately 235-250 g at start of treatment were used. Eighty rats were randomly distributed between 7 groups of 11 to 12 animals per group as follows: 1) Intact control; 2) OVX control; 3) OVX+EE2 (0.1 mg/kg); 4) OVX+raloxifene (1 mg/kg); 5) OVX+EM-652.HCl (1 mg/kg); 6) OVX+DHEA (80 mg/kg); 7) OVX+EM-652.HCl+DHEA. On day 1 of the study, the animals of the appropriate groups were bilaterally ovariectomized (OVX) under isoflurane anesthesia. EM-652.HCl, raloxifene and EE2 (Steraloids) were administered once daily by oral gavage as suspension in 0.4% methylcellulose (0.5 ml/rat) for 34 weeks while DHEA was applied topically once daily on dorsal skin as a solution in 50% ethanol-50% propylene glycol (0.5 ml/rat) for the same time period. Approximately 24 hours after the last dosing, overnight fasted animals were killed by exsanguination at the abdominal aorta under isoflurane anesthesia. Left and right retroperitoneal adipose tissues were collected and weighed.
# After 34 weeks of treatment, individual rats under anesthesia with isoflurane had their whole body skeleton scanned using dual energy x-ray absorptiometry (DEXA; QDR 4500A, Hologic, Waltham, Mass.) and a Regional High Resolution Scan software. The body composition (including fat percentage) was determined.
# Data were expressed as the means±SEM.
# [2] = test system: human endometrial adenocarcinoma Ishikawa cells; assay: Alkaline phosphatase activity in Ishikawa cells (Example 11); type: cell-based; settings: for IC50: Homo sapiens, Ishikawa, 120 h, read-out: Inhibition of 1 nM E2 stimulation of alkaline phosphatase by tested compounds IC50; for Stimulation of alkaline phosphatase by tested compounds % of 1 nM E2 stimulation: intrinsic estrogenic activity
# Experimental: The human Ishikawa cell line derived from a well differentiated endometrial adenocarcinoma was kindly provided by Dr. Erlio Gurpide, The Mount Sinai Medical Center, New York, N.Y. The Ishikawa cells were routinely maintained in Eagle's Minimum Essential Medium (MEM) containing 5% (vol/vol) FBS and supplemented with 100 U/ml penicillin, 100 μg/ml streptomycin, 0.1 mM Non-essential Amino Acids solution. Cells were plated in Falcon T75 flasks at a density of 1.5×10^6 cells at 37 C.
# Twenty four hours before the start of an experiment, the medium of near confluent Ishikawa cells was replaced by fresh estrogen-free basal medium (EFBM) consisting of a 1:1 (v:v) mixture of phenol red-free Ham's F-12 and Dulbecco's Modified Eagle's Medium (DMEM) supplemented with 100 U/mL penicillin, 100 μg/mL Streptomycin, 2 mM glutamine, and 5% FBS treated twice with dextran-coated charcoal to remove endogenous steroids. Cells were then harvested by 0.1% pancreatin (Sigma) and 0.25 mM HEPES, resuspended in EFBM and plated in Falcon 96 well flat-bottomed microtiter plates at a density of 2.2×10^4 cells/well in a volume of 100 μl and allowed to adhere to the surface of the plates for 24 h. Thereafter, medium was replaced with fresh EFBM containing the indicated concentrations of compounds in a final volume of 200 μl. Cells were incubated for five days, with a medium change after 48 h.
# At the end of the incubation period, microtiter plates were inverted and growth medium was decanted. The plates were rinsed with 200 μL by well of PBS (0.15M NaCl, 10 mM sodium phosphate, pH 7.4). PBS was then removed from the plates while carefully leaving some residual PBS, and the wash procedure was repeated once. The buffered saline was then decanted, and the inverted plates were blotted gently on a paper towel. Following replacement of the covers, the plates were placed at −80 C for 15 min followed by thawing at room temperature for 10 min. The plates were then placed on ice, and 50 μl of an ice-cold solution containing 5 mM p-nitrophenyl phosphate, 0.24 mM MgCl2, and 1 M diethanolamine (pH 9.8) was added. Plates were then warmed to room temperature, and the yellow color from the production of p-nitrophenyl was allowed to develop (8 min). Plates were monitored at 405 nm in an enzyme-linked immunosorbent assay plate reader (BIO-RAD, model 2550 EIA Reader).
# Dose-response curves as well as IC50 values were calculated using a weighted iterative nonlinear squares regression.
# [3] = test system: ovariectomized female rats; assay: SERM comparison, energy balance and lipid-lipoprotein metabolism (Example 10); type: in vivo, Rattus norvegicus; settings: OVX rats, 20 days; for Serum insulin (in words): 0.5 mg/rat; for Brown adipose tissue Lipoprotein lipase activity / Brown adipose tissue weight / Cumulative food intake / Serum glucose / Serum insulin / Serum leptin / Serum total cholesterol / Serum triglycerides / Soleus muscle Lipoprotein lipase activity / Soleus muscle weight / Total weight / VastusLateralis muscle weight / White adipose tissue inguinal Lipoprotein lipase activity / White adipose tissue inguinal weight / White adipose tissue retroperitoneal Lipoprotein lipase activity / White adipose tissue retroperitoneal weight: high carbohydrate diet, 0.5 mg/rat oral gavage
# Experimental: For this purpose, tested compounds were administered by oral gavage for 20 days (0.5 mg/rat for each compound; 0.5 ml/rat) in 0.4% methylcellulose to ovariectomized female rats.
# d) Diet: • During acclimation period, rats received a certified rodent diet (Lab Diet #5002, pellet) and tap water ad libitum while during study period, they received a high carbonhydrate diet (diet #3) and tap water ad libitum. The diet was composed of (g/100 g): Corn starch, 31.2; Dextrose, 31.2; Casein, 20.0; corn oil, 6.4; dl-Methionine, 0.3; Vitamine mix, 1.0; AIN-76 mineral mix, 4.9; fiber, 5.0. Rats were fasted (with access to water only) around 07 h00 the morning of their necropsy Randomization:
# Test group: Seventy-seven rats were assigned to 8 groups of 9-10 rats for conduct of the study outlined below.
# On day 0 of the study, rats from group 2 to 8 were ovariectomized (by bilateral flank incision) under Isoflurane anesthesia. Rats from group 1 were sham-operated.
# Rats were weighed on day 0 (surgery) and then, every 2 days during study period as well as on the day of necropsy.
# Food consumption was evaluated every 2 days.
# In order to determine the effect of treatments on fat percentage, body composition was measured on Day 17 of the study using dual energy x-ray absorptiometry (DEXA; QDR 4500A, Hologic, Waltham, Mass.).
# On day 21 of the study, approximately 24 hours after the last dosing and 6 hours of fasting, animals under Ketamine-Xylazine anesthesia were killed by exsanguination at the abdominal aorta.
# Blood lipids (Total cholesterol and Triglycerides) and glucose were measured on frozen serum samples using the Boehringer Mannheim Diagnostic Hitachi 911 Analyzer (Boehringer Mannheim Diagnostic Laboratory Systems). Circulating hormones and substrates (Insulin and leptin) were measured on serum sample using the following kits: • Insulin: Linco RIA kit • Leptin: Linco RIA kit Organs and Tissues Collected
# The following tissues were collected and weighed: • Muscle (right soleus and right VLM), fat (right retroperitoneal and right inguinal), and brown adipose tissue.
# A piece of ˜0.1 g of all tissues (except uterus and vagina) were frozen in liquid nitrogen and kept at −80 C for later determination of lipoprotein-lipase (LPL) activity.
# [4] = test system: ovariectomized female rats; assay: Uterine weight, fat and lipid, 20-day treatment (Example 13); type: in vivo, Rattus norvegicus; settings: 20 days
# Experimental: The objective of this study was to compare the effect on uterine, weight, fat and blood lipids following treatment with EM-652.HCl, ERA-923 and lasofoxifene, administered alone or in combination with EM-652.HCl, to ovariectomized female rats. For this purpose, each compound was administered orally for 20 days to ovariectomized female rats and at the end of the treatment period, the uterus and fat were collected and weighed.
# d) Diet: • Certified Rodent feed (Lab Diet #5002, pellets) and tap water were provided ad libitum. Randomization:
# Seventy rats were separated into 7 groups of 9 to 11 animals for conduct of the study outlined below:
# Animals from groups 2 to 9 were ovariectomized under Isoflurane-induced anesthesia on Day 7 of the study.
# The vehicle or tested compounds were given as suspension in 0.4% methylcellulose by oral gavage (0.5 ml/gavage/rat) from Day 2 to Day 21 of the study.
# Rats were weighed on Study Day 1 and at the necropsy (SD 22).
# Approximately 24 hours after the last dosing, overnight fasted rats under Isoflurane-induced anesthesia were killed by exsanguination at the abdominal aorta.
# Uteri and retroperitonal adipose tissue were removed and weighed.
# [5] = EE2 0.1, Raloxifene 1, EM-652.HCl 1 mg/kg oral, DHEA 80 mg/kg topical
# [6] = Ishikawa cells, five days incubation
# [7] = OVX rats, commercial rodent diet, 0.5 mg oral, EM-652.HCl 2.5 mg in combinations
structure (smiles),measurement,setting,value
"C#C[C@]1(O)CC[C@H]2[C@@H]3CCc4cc(O)ccc4[C@H]3CC[C@@]21C [EE2, 17-ethynylestradiol]",increment of body fat and retroperitoneal adipose tissue by ovariectomy,[1],prevented
same,Fat %,"[1]; DEXA, EE2 0.1, Raloxifene 1, EM-652.HCl 1 mg/kg oral, DHEA 80 mg/kg topical",19.8 ± 1.9%
same,Left retroperitoneal adipose tissue,[1]; [5],1.15 ± 0.18 g
same,Right retroperitoneal adipose tissue,[1]; [5],1.29 ± 0.22 g
CC/C(=C(\c1ccc(I)cc1)c1ccc(OCCN2CCCC2)cc1)c1ccccc1 [Idoxifene],IC50,[2],> 1 µM
same,Stimulation of alkaline phosphatase by tested compounds % of 1 nM E2 stimulation,[2]; [6],25.1 ± 1.5 (5) % of 1 nM E2 stimulation
"Oc1ccc2c(c1)CC[C@H](c1ccccc1)[C@@H]2c1ccc(OCCN2CCCC2)cc1 [Lasofoxifene, cis-1R-[4′-pyrrolidino-ethoxyphenyl]-2S-phenyl-6-hydroxy-1,2,3,4,-tetrahydronapthalene D-(−)-tartrate salt]",Serum insulin (in words),[3],decreased
same,Brown adipose tissue Lipoprotein lipase activity,[3],982 ± 98 μU/g protein
same,Brown adipose tissue weight,[3],0.244 ± 0.022 g
same,Cumulative food intake,[3],283 ± 14 g
same,Serum glucose,[3],15.8 ± 1.3 mmol/L
same,Serum insulin,[3],0.095 ± 0.017 nmol/L
same,Serum leptin,[3],0.97 ± 0.29 ng/mL
same,Serum total cholesterol,[3],1.29 ± 0.06 mmol/L
same,Serum triglycerides,[3],0.81 ± 0.21 mmol/L
same,Soleus muscle Lipoprotein lipase activity,[3],10.9 ± 1.5 μU/g protein
same,Soleus muscle weight,[3],0.096 ± 0.003 g
same,Total weight,[3],210 ± 2 g
same,VastusLateralis muscle weight,[3],0.800 ± 0.048 g
same,White adipose tissue inguinal Lipoprotein lipase activity,[3],801 ± 138 μU/g protein
same,White adipose tissue inguinal weight,[3],0.187 ± 0.023 g
same,White adipose tissue retroperitoneal Lipoprotein lipase activity,[3],1417 ± 163 μU/g protein
same,White adipose tissue retroperitoneal weight,[3],0.867 ± 0.132 g
same,Stimulation of alkaline phosphatase by tested compounds % of 1 nM E2 stimulation,[2]; [6],18 % of 1 nM E2 stimulation
same,OVX-induced increase in total serum cholesterol levels,[4]; 0.5 mg,completely prevented
same,increase of uterine weight compared to OVX control,[4]; 0.5 mg,62%
same,prevention of body weight increase induced by ovariectomy,"[4]; OVX rats, 0.5 mg",127%
same,Cholesterol,[4]; [7],0.95 ± 0.09 mmol/L
same,Final Body Weight,[4]; [7],210 ± 3 g
same,Uterine Weight,[4]; [7],247.4 ± 9.1 mg
CC/C(=C(/c1ccc(OCCN(C)C)cc1)c1cccc(O)c1)c1ccccc1 [Droloxifene],IC50,[2],0.291 ± 0.115 µM
same,Stimulation of alkaline phosphatase by tested compounds % of 1 nM E2 stimulation,[2]; [6],23.8 ± 3.1 (7) % of 1 nM E2 stimulation
CN(C)CCOc1ccc(/C(=C(/CCCl)c2ccccc2)c2ccc(O)cc2)cc1 [OH-Toremifene],Stimulation of alkaline phosphatase by tested compounds % of 1 nM E2 stimulation,[2]; [6],29.6 ± 2.1 (6) % of 1 nM E2 stimulation
COc1ccc(-c2sc3cc(O)ccc3c2Oc2ccc(OCCN3CCCCC3)cc2)cc1.Cl [LY 353381],Serum insulin (in words),[3],decreased
same,Brown adipose tissue Lipoprotein lipase activity,[3],888 ± 65 μU/g protein
same,Brown adipose tissue weight,[3],0.368 ± 0.031 g
same,Cumulative food intake,[3],312 ± 7 g
same,Serum glucose,[3],17.1 ± 0.7 mmol/L
same,Serum insulin,[3],0.104 ± 0.11 nmol/L
same,Serum leptin,[3],1.22 ± 0.21 ng/mL
same,Serum total cholesterol,[3],1.15 ± 0.08 mmol/L
same,Serum triglycerides,[3],1.23 ± 0.28 mmol/L
same,Soleus muscle Lipoprotein lipase activity,[3],10.1 ± 1.0 μU/g protein
same,Soleus muscle weight,[3],0.092 ± 0.002 g
same,Total weight,[3],231 ± 4 g
same,VastusLateralis muscle weight,[3],0.955 ± 0.20 g
same,White adipose tissue inguinal Lipoprotein lipase activity,[3],559 ± 165 μU/g protein
same,White adipose tissue inguinal weight,[3],0.290 ± 0.038 g
same,White adipose tissue retroperitoneal Lipoprotein lipase activity,[3],1365 ± 119 μU/g protein
same,White adipose tissue retroperitoneal weight,[3],0.968 ± 0.120 g
CC/C(=C(\c1ccc(O)cc1)c1ccc(OCCN(C)C)cc1)c1ccccc1 [OH-Tamoxifen],IC50,[2],0.0319 ± 0.006 µM
same,Stimulation of alkaline phosphatase by tested compounds % of 1 nM E2 stimulation,[2]; [6],32.4 ± 2.2 (8) % of 1 nM E2 stimulation
CC/C(=C(\c1ccccc1)c1ccc(/C=C/C(=O)O)cc1)c1ccccc1 [GW-5638],Inhibition of 1 nM E2 stimulation of alkaline phosphatase by tested compounds IC50,"[2]; Ishikawa cells, five days incubation, 1 nM E2, antiestrogenic activity",No inhibition
same,Stimulation of alkaline phosphatase by tested compounds % of 1 nM E2 stimulation,[2]; [6],7.75 ± 5.5 (2) % of 1 nM E2 stimulation

# From patent US8609695B2, “Methods of treating and/or suppressing insulin resistance” (Endorecherche, Inc., priority 1999, dated 2013)
